Source: patent US20030134859A1 (SANKYO COMPANY, LIMITED, priority 2000, published 2003)
Like-named read-outs stand apart in the source and are kept apart here.

Legend:
TNF-α production = assay: Inhibitory activity against cytokine (TNF-α) production in LPS-stimulated RAW264.7 cells; type: cell-based, mouse; conditions: 1 μM test compound, LPS 10 ng/mL; for inhibition at 1 µM: Mus musculus
Procedure, shortened: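 Mouse RAW264.7 macrophages (5,000 cells/well) stimulated with 10 ng/mL LPS (final) and treated with test compound at 1 μM final for 15 h at 37 °C. Supernatant mouse TNF-α measured by ELISA; % inhibition = 100−(A−B)/(C−B)×100, using unstimulated and LPS-only controls.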

leptin production = assay: Enhancing activity for leptin production in adipocytes (ELISA); type: cell-based, rat; conditions: leptin concentration as % of control group; for activity at 1 µM / activity at 0.001 µM / activity at 0.01 µM / activity at 0.1 µM: Rattus norvegicus, Adipocyte, read-out: Facilitating activity to produce leptin
Procedure, shortened: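 Collagenase-dispersed epididymal adipocytes from 6-week-old male Wistar Imamichi rats, cultured in DMEM/F-12 (1:1) with test compound at final 1 µM, 100 nM, 10 nM or 1 nM (0.1% DMSO) for 24 h at 37 °C, 5% CO2. Leptin in filtrate measured by ELISA; activity = treated/DMSO-control leptin × 100 (%).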

O=C(Nc1ccc(-c2ccc([N+](=O)[O-])cc2)cc1)c1cc([N+](=O)[O-])ccc1Cl [Example 9, N-[4-(4-Nitrophenyl)phenyl)-(2-chloro-5-nitrophenyl)carboxamide] gave an inhibition at 1 µM (TNF-α production; 15 hr) of 34%.
For O=C(Nc1ccc(OC(F)(F)F)cc1)c1cc([N+](=O)[O-])ccc1Cl [Example 18, N-(4-Trifluoromethyloxyphenyl)-(2-chloro-5-nitrophenyl)carboxamide], the inhibition at 1 µM (TNF-α production; RAW264.7, 15 h) was 16.8%.
With N#Cc1cccc(NC(=O)c2cc([N+](=O)[O-])ccc2Cl)c1 [Example 21, N-(3-Cyanophenyl)-(2-chloro-5-nitrophenyl)carboxamide] the activity at 1 µM (leptin production; 24 h, 1 μM) was 130%, the activity at 0.001 µM (leptin production; 24 h, 1 nm) was 116% and the activity at 0.01 µM (leptin production; 24 h, 10 nm) was 120%. It also gave an activity at 0.1 µM (leptin production; 24 h, 100 nm) of 150%.
O=C(Nc1cccc([N+](=O)[O-])c1)c1cc([N+](=O)[O-])ccc1Cl [Example 25, N-(3-Nitrophenyl)-(2-chloro-5-nitrophenyl)carboxamide] showed an activity at 0.001 µM (leptin production; 1 nm, 24 hr) of 113%, an activity at 0.01 µM (leptin production; 10 nm, 24 hr) of 118% and an activity at 0.1 µM (leptin production; 100 nm, 24 hr) of 156%.
O=C(Nc1cc([N+](=O)[O-])ccc1Cl)c1cc([N+](=O)[O-])ccc1Cl [Example 28, N-(2-Chloro-5-nitrophenyl)-(2-chloro-5-nitrophenyl)carboxamide] gave an activity at 1 µM (leptin production; 1 μM, 24 hr) of 108% and an activity at 0.1 µM (leptin production; 100 nm, 24 hr) of 120%.
For O=C(Nc1cccc(C(=O)N2CCCC2)c1)c1cc([N+](=O)[O-])ccc1Cl [Example 31], the “Facilitating activity to produce leptin” value (leptin production; 100 nm, 24 hr) was 116.9%.
In the case of Cc1ccc(S(=O)(=O)Nc2ccc(NC(=O)c3cc([N+](=O)[O-])ccc3Cl)cc2)cc1 [Example 32, N-[4-(4-Methylbenzene)sulfonylaminophenyl]-(2-chloro-5-nitrophenyl)carboxamide], the “Inhibitory Activity (%) against TNF-α production” value (TNF-α production; 15 hr) is reported as 19.8%.
For O=C(Nc1ccncc1)c1cc([N+](=O)[O-])ccc1Cl [Example 49, N-(4-Pyridyl)-(2-chloro-5-nitrophenyl)carboxamide], the activity at 1 µM (leptin production; 24 h, 1 μM) was 121%, the activity at 0.01 µM (leptin production; 24 h, 10 nm) was 131% and the activity at 0.1 µM (leptin production; 24 h, 100 nm) was 133%.
O=C(Nc1ccc(NC(=O)c2cc([N+](=O)[O-])ccc2Cl)nc1)c1cc([N+](=O)[O-])ccc1Cl [Example 64, 2,5-bis(2-Chloro-5-nitrobenzoylamino)pyridine] gave an activity at 0.001 µM (leptin production; 1 nm, 24 hr) of 110%, an activity at 0.01 µM (leptin production; 10 nm, 24 hr) of 112% and an activity at 0.1 µM (leptin production; 100 nm, 24 hr) of 119%.
With O=C(Nc1nc2cc(Cl)ccc2o1)c1cc([N+](=O)[O-])ccc1Cl [Example 75, N-(5-Chlorobenzoxazol-2-yl)-(2-chloro-5-nitrophenyl)carboxamide] the activity at 0.1 µM (leptin production; 24 h, 100 nm) was 118%.
O=C(Nc1ncc(Br)cn1)c1cc([N+](=O)[O-])ccc1Cl [Example 77, N-(5-Bromopyrimidin-2-yl)-(2-chloro-5-nitrophenyl)carboxamide] showed an activity at 1 µM (leptin production; 24 h, 1 μM) of 113%, an activity at 0.001 µM (leptin production; 24 h, 1 nm) of 108% and an activity at 0.01 µM (leptin production; 24 h, 10 nm) of 110%. The activity at 0.1 µM (leptin production; 24 h, 100 nm) was 130%.
O=C(Nc1nc(Cl)cc(Cl)n1)c1cc([N+](=O)[O-])ccc1Cl [Example 83, N-(4,6-Dichloropyrimidin-2-yl)-(2-chloro-5-nitrophenyl)carboxamide] was tested, and the activity at 0.1 µM (leptin production; 24 h, 100 nm) was 126%.
For O=C(Nc1ccc(Cl)nn1)c1cc([N+](=O)[O-])ccc1Cl [Example 89], the “Facilitating activity to produce leptin” value (leptin production; 100 nm, 24 hr) was 123.2%.
Cc1c(C)c2c(c(C)c1O)C(=O)CC(C)(COc1ccc(NC(=O)c3cc([N+](=O)[O-])ccc3Cl)cc1)O2 (stereo not drawn) [Example 92, N-[4-(6-Hydroxy-2,5,7,8-tetramethyl-4-oxochroman-2-ylmethoxy)phenyl]-(2-chloro-5-nitrophenyl)carboxamide] showed an activity at 0.1 µM (leptin production; 24 h, 100 nm) of 116%.
Work on Cc1nnc(NS(=O)(=O)c2ccc(NC(=O)c3cc([N+](=O)[O-])ccc3Cl)cc2)s1 [Example 101, N-[4-[(5-Methyl-[1,3,4]thiadiazol-2-yl)aminosulfonyl]phenyl]-(2-chloro-5-nitrophenyl)carboxamide] yielded an activity at 1 µM (leptin production; 24 h, 1 μM) of 117%.
Work on O=C(Nc1ccc(-c2ccc(NC(=O)c3cc([N+](=O)[O-])ccc3Cl)cc2)cc1)c1ccccc1 [Example 120, N-[4-(4-Benzoylaminophenyl)phenyl]-(2-chloro-5-nitrophenyl)carboxamide] yielded an activity at 1 µM (leptin production; 24 h, 1 μM) of 121%, an activity at 0.001 µM (leptin production; 24 h, 1 nm) of 108% and an activity at 0.01 µM (leptin production; 24 h, 10 nm) of 110%. The activity at 0.1 µM (leptin production; 24 h, 100 nm) was 119%.
Cc1ccc(C(=O)Nc2ccc(NC(=O)c3cc([N+](=O)[O-])ccc3Cl)cc2)cc1 [Example 121, N-[4-(4-Methylbenzoyl)aminophenyl]-(2-chloro-5-nitrophenyl)carboxamide] gave an activity at 0.1 µM (leptin production; 24 h, 100 nm) of 114%.
With O=C(Nc1ccc(-c2ccc(NC(=O)c3cc([N+](=O)[O-])ccc3Cl)cc2)cc1)c1cccnc1 [Example 124, N-[4-[4-(Pyridin-3-ylcarbonylamino)phenyl]phenyl]-(2-chloro-5-nitrophenyl)carboxamide] the activity at 1 µM (leptin production; 24 h, 1 μM) was 124%, the activity at 0.001 µM (leptin production; 24 h, 1 nm) was 113% and the activity at 0.01 µM (leptin production; 24 h, 10 nm) was 113%. For the same compound, the activity at 0.1 µM (leptin production; 24 h, 100 nm) was 146%.
With O=C(Nc1ccc(-c2ccc(NC(=O)c3cc([N+](=O)[O-])ccc3Cl)cc2)cc1)c1ccncc1 [Example 126, N-[4-[4-(Pyridin-4-ylcarbonylamino)phenyl]phenyl]-(2-chloro-5-nitrophenyl)carboxamide] the activity at 1 µM (leptin production; 24 h, 1 μM) was 142%, the activity at 0.01 µM (leptin production; 24 h, 10 nm) was 109% and the activity at 0.1 µM (leptin production; 24 h, 100 nm) was 121%.
For O=C(Nc1ccc(NS(=O)(=O)c2ccccc2)cc1)c1cc([N+](=O)[O-])ccc1Cl [Example 127, N-(4-Benzenesulfonylaminophenyl)-(2-chloro-5-nitrophenyl)carboxamide], the activity at 1 µM (leptin production; 24 h, 1 μM) was 115%.
Compound CCS(=O)(=O)Nc1ccc(-c2ccc(NC(=O)c3cc([N+](=O)[O-])ccc3Cl)cc2)cc1 [Example 130, N-[4-(4-Ethanesulfonylaminophenyl)phenyl]-(2-chloro-5-nitrophenyl)carboxamide] has an activity at 1 µM (leptin production; 24 h, 1 μM) of 116% and an activity at 0.1 µM (leptin production; 24 h, 100 nm) of 123%.
O=C(Nc1cnccn1)c1cc([N+](=O)[O-])ccc1Cl [Example 140, N-(Pyrazin-2-yl)-(2-chloro-5-nitrophenyl)carboxamide] showed an activity at 0.1 µM (leptin production; 24 h, 100 nm) of 114%.
Compound Cl.O=C(Nc1ccncc1)c1cc([N+](=O)[O-])ccc1Cl [Example 146, N-(Pyridin-4-yl)-(2-chloro-5-nitrophenyl)carboxamide Hydrochloride] has an activity at 1 µM (leptin production; 24 h, 1 μM) of 126%, an activity at 0.01 µM (leptin production; 24 h, 10 nm) of 112% and an activity at 0.1 µM (leptin production; 24 h, 100 nm) of 138%.
With O=C(Nc1ccc(S(=O)(=O)N2CCCCC2)cc1)c1cc([N+](=O)[O-])ccc1Cl [Example 151, N-[4-(Piperidyisulfonyl)phenyl]-(2-chloro-5-nitrophenyl)carboxamide] the activity at 1 µM (leptin production; 24 h, 1 μM) was 113% and the activity at 0.1 µM (leptin production; 24 h, 100 nm) was 113%.
With O=C(Nc1ccc(S(=O)(=O)N2CCOCC2)cc1)c1cc([N+](=O)[O-])ccc1Cl [Example 153, N-[4-(Morpholin-4-ylsulfonyl)phenyl]-(2-chloro-5-nitrophenyl)carboxamide] the activity at 1 µM (leptin production; 24 h, 1 μM) was 113%.
CC(=O)c1ccc(NC(=O)c2cc([N+](=O)[O-])ccc2Cl)cc1 [Example 155, N-(4-Acetylphenyl)-(2-chloro-5-nitrophenyl)carboxamide] showed an activity at 1 µM (leptin production; 24 h, 1 μM) of 114% and an activity at 0.1 µM (leptin production; 24 h, 100 nm) of 130%.
In the case of CC(=O)c1cccc(NC(=O)c2cc([N+](=O)[O-])ccc2Cl)c1 [Example 156, N-(3-Acetylphenyl)-(2-chloro-5-nitrophenyl)carboxamide], the activity at 1 µM (leptin production; 24 h, 1 μM) is reported as 112% and the activity at 0.1 µM (leptin production; 24 h, 100 nm) is reported as 118%.
CC(C)(C)c1cc(NS(=O)(=O)c2cccc(NC(=O)c3cc([N+](=O)[O-])ccc3Cl)c2)cc(C(C)(C)C)c1O [Example 161, N-[3-[(3,5-di-tert-Butyl-4-hydroxyphenyl)aminosulfonyl]phenyl]-(2-chloro-5-nitrophenyl)carboxamide] was tested, and the activity at 1 µM (leptin production; 24 h, 1 μM) was 131%.
O=C(Nc1ccc(-n2ccnc2)cc1)c1cc([N+](=O)[O-])ccc1Cl [Example 174, N-[4-(Imidazol-1-yl)phenyl]-(2-chloro-5-nitrophenyl)carboxamide] was tested, and the activity at 0.001 µM (leptin production; 24 h, 1 nm) was 118%, the activity at 0.01 µM (leptin production; 24 h, 10 nm) was 123% and the activity at 0.1 µM (leptin production; 24 h, 100 nm) was 127%.
Compound O=C(Nc1ccc(-c2ccc(N3CCCCC3)cc2)cc1)c1cc([N+](=O)[O-])ccc1Cl [Example 177, N-[4-[4-(Piperidin-1-yl)phenyl]phenyl]-(2-chloro-5-nitrophenyl)carboxamide] has an activity at 1 µM (leptin production; 24 h, 1 μM) of 145%, an activity at 0.01 µM (leptin production; 24 h, 10 nm) of 121% and an activity at 0.1 µM (leptin production; 24 h, 100 nm) of 134%.
For “N-[3-(Pyrrolidinylsulfonyl)phenyl]-(2-chloro-5-nitrophenyl)carboxamide [Example 154]”, the “Facilitating activity to produce leptin” value (leptin production; 1 μM, 24 hr) was 116.9% and the “Facilitating activity to produce leptin” value (leptin production; 100 nm, 24 hr) was 109.5%.
“N-[4-(4-Methylbenzoylamino)phenyl]phenyl]-(2-chloro-5-nitrophenyl)carboxamide [Example 122]” was tested, and the “Facilitating activity to produce leptin” value (leptin production; 1 μM, 24 hr) was 128.5% and the “Facilitating activity to produce leptin” value (leptin production; 100 nm, 24 hr) was 128.5%.
For “N-[4-[4-(Pyrrolidin-1-ylamino)phenyl]phenyl]-(2-chloro-5-nitrophenyl)carboxamide [Example 171]”, the “Facilitating activity to produce leptin” value (leptin production; 1 μM, 24 hr) was 126.7%, the “Facilitating activity to produce leptin” value (leptin production; 1 nm, 24 hr) was 113.2% and the “Facilitating activity to produce leptin” value (leptin production; 10 nm, 24 hr) was 115.4%. For the same compound, the “Facilitating activity to produce leptin” value (leptin production; 100 nm, 24 hr) was 128.1%.
